For assay [1], the target named is T1, KDR tyrosine kinase (Homo sapiens, UniProt P35968).
T1 construct: encoding most of the cytoplasmic domain, commencing with methionine 806 and including the termination codon; made in house; host or cells: Sf9 insect cells (baculovirus)
Description: In vitro enzyme assay (ELISA), KDR tyrosine kinase. The format is biochemical. The following applies: Test (a); ATP 8 μM; read-out: IC50 versus KDR tyrosine kinase.
Description: For expression, Sf9 cells were infected with plaque-pure KDR recombinant virus and harvested 48 hours later. […] The suspension was centrifuged for 10 minutes at 13,000 rpm at 4° C. The supernatant (stock enzyme solution) was removed and stored in aliquots at −70° C.
(§1) The excess of substrate solution was discarded and the wells were washed in turn with PBS containing 0.05% v/v Tween 20 (PBST; 300 μl/well) and twice with Hepes pH7.4 buffer (50 mM, 300 μl/well) before being blotted dry.
Aliquots (25 μl) of each dilution of test compound were transferred to wells in the washed assay plates. “Maximum” control wells contained diluted DMSO instead of compound. […]
Each kinase enzyme was diluted immediately prior to use with an enzyme diluent comprising 100 mM Hepes pH7.4 buffer, 0.1 mM sodium orthovanadate, 0.1% Triton X-100 and 0.2 mM dithiothreitol. […] The plates were agitated at ambient temperature for about 20 minutes until the optical density value of the “maximum” control wells, as measured at 405 nm using a plate reading spectrophotometer, was approximately 1.0.

The target in assay [2] is T2, phospho-Tyr751 PDGFRβ (Homo sapiens, UniProt P09619).
T2 construct: phosphorylation of PDGFR expressed on MG63 osteosarcoma cells; endogenous in cells; host or cells: MG63 osteosarcoma cells
T2 sequence (P09619 33-1106): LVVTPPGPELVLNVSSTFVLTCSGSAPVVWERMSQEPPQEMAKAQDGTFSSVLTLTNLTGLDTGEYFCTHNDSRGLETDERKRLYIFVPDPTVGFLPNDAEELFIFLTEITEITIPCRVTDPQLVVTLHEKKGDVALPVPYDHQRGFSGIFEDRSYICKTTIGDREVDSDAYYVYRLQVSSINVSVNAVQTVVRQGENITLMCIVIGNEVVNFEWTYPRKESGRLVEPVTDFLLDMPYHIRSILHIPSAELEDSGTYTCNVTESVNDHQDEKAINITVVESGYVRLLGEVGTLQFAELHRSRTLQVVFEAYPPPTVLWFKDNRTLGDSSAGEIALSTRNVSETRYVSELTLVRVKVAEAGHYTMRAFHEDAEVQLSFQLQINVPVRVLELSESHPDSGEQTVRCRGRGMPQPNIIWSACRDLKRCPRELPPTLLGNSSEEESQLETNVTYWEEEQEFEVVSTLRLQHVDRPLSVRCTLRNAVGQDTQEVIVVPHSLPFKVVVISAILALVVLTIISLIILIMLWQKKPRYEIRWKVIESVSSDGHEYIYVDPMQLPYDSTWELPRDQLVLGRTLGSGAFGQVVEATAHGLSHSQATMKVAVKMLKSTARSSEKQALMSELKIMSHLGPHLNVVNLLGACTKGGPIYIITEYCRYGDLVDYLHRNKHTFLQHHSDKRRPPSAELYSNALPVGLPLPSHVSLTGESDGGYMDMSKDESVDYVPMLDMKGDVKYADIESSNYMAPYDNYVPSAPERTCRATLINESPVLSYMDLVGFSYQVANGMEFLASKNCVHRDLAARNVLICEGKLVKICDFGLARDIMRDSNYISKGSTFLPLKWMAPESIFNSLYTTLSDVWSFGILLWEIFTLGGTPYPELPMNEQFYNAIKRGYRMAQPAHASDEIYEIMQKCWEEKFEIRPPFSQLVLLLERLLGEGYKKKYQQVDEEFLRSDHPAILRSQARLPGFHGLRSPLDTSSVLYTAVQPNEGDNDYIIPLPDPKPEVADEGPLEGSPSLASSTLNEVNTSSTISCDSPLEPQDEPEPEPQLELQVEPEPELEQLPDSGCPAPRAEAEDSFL
Description: In vitro phospho-Tyr751 PDGFRβ ELISA assay in MG63 osteosarcoma cells. The format is cell-based. As to conditions: Test (b); MG63 cells stimulated with PDGFBB; read-out: IC50 versus phospho-Tyr751 PDGFRβ. The protocol: This assay uses a conventional ELISA method to determine the ability of test compounds to inhibit phosphorylation of tyrosine in PDGFRβ.
The cells were incubated overnight at 37° C. with 7.5% CO2 to allow the cells to adhere to the wells.
The cells were incubated for 90 minutes at 37° C. with 7.5% CO2.
The resultant cells were stimulated with PDGFBB using the following procedure. […] The cells were incubated at 37° C. with 7.5% CO2 for 5 minutes. […] The resultant tissue culture plates were shaken for 5 minutes at ambient temperature to ensure full lysis and then frozen at −20° C. until required.
The wells were washed 5 times (1 minute soak each time) with 300 μl per well of PBST. The wells were treated with 50 μl of 3% BSA in PBST at ambient temperature for 1 hour and subsequently washed twice with 300 μl per well of PBST.
The tissue culture plates with frozen cell lysate were allowed to warm to 0° C. […] Aliquots (50 μl) of chemiluminescent substrate solution were added to each of the wells, the plates were agitated for 2 minutes and luminescence was read on a SpectraFluor Plus plate reader (Tecan UK Ltd., Reading, Berkshire, UK). Analysis for each of the compounds was completed by determining a ratio of the ‘phospho antibody’ plate reading to the ‘total antibody’ plate reading for each test sample and these ratios were plotted to determine the IC50 value of each test compound.
A general note: ELISA stands for enzyme-linked immunosorbent assay.

The target in assay [3] is T3, PDGFRβ tyrosine kinase (Homo sapiens, UniProt P09619).
T3 construct: PDGFRα, PDGFRβ and KDR receptor cytoplasmic domains, obtained by expression of recombinant protein in insect cells; purchased Upstate Biotechnology Inc. 14-463; host or cells: Sf9 insect cells
T3 sequence (P09619 554-1106 limits assumed): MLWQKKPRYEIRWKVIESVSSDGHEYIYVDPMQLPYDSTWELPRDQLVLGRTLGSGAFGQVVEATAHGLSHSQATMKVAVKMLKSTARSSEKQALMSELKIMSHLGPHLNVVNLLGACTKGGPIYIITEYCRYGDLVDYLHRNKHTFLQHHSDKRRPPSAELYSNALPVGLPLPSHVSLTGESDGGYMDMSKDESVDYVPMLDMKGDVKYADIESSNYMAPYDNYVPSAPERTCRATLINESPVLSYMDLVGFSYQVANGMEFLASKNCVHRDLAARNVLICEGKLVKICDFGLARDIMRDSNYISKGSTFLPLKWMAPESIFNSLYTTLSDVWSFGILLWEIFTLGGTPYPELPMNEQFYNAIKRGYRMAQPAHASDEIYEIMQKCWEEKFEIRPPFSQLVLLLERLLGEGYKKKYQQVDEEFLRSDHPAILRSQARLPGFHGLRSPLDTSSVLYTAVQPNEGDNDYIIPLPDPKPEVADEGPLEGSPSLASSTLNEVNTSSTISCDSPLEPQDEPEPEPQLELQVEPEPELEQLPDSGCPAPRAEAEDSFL
Briefly: In vitro enzyme assay (ELISA), PDGFRβ tyrosine kinase. It counts as biochemical.
Description: as §1
Aliquots (25 μl) of each dilution of test compound were transferred to wells in the washed assay plates. “Maximum” control wells contained diluted DMSO instead of compound. Aliquots (25 μl) of an aqueous manganese chloride solution (40 mM) containing adenosine-5′-triphosphate (ATP) was added to all test wells except the “blank” control wells which contained magnesium chloride without ATP.
Each kinase enzyme was diluted immediately prior to use with an enzyme diluent comprising 100 mM Hepes pH7.4 buffer, 0.1 mM sodium orthovanadate, 0.1% Triton X-100 and 0.2 mM dithiothreitol. Aliquots (50 μl) of freshly diluted enzyme were added to each well and the plates were agitated at ambient temperature for 20 minutes. […] The plates were agitated at ambient temperature for about 20 minutes until the optical density value of the “maximum” control wells, as measured at 405 nm using a plate reading spectrophotometer, was approximately 1.0.

Assay [4] addresses T4, PDGFRα tyrosine kinase (Homo sapiens, UniProt P16234).
T4 construct: PDGFRα, PDGFRβ and KDR receptor cytoplasmic domains, obtained by expression of recombinant protein in insect cells; purchased Upstate Biotechnology Inc. 14-467; host or cells: Sf9 insect cells
Briefly: In vitro enzyme assay (ELISA), PDGFRα tyrosine kinase. It counts as biochemical. The following applies: Test (a); ATP 14 μM; read-out: IC50 versus PDGFRα tyrosine kinase. The protocol:
The ability of test compounds to inhibit the phosphorylation of a tyrosine containing polypeptide substrate by the tyrosine kinase enzymes PDGFRα, PDGFRβ and KDR was assessed using conventional ELISA assays.
DNA encoding the PDGFRα, PDGFRβ or KDR receptor cytoplasmic domains may be obtained by total gene synthesis (International Biotechnology Lab., 1987, 5(3), 19-25) or by cloning. The DNA fragments may be expressed in a suitable expression system to obtain polypeptide with tyrosine kinase activity. For example, PDGFRα, PDGFRβ and KDR receptor cytoplasmic domains, obtained by expression of recombinant protein in insect cells, can be shown to display intrinsic tyrosine kinase activity. In the case of the VEGF receptor KDR (Genbank Accession No. L04947), a DNA fragment encoding most of the cytoplasmic domain, commencing with methionine 806 and including the termination codon may be cloned into a baculovirus transplacement vector [for example pAcYM1 (see The Baculovirus Expression System: A Laboratory Guide, L. A. King and R. D. Possee, Chapman and Hall, 1992) or pAc360 or pBlueBacHis (available from Invitrogen Corporation)]. This recombinant construct may be co-transfected into insect cells [for example Spodoptera frugiperda 21(Sf21) or Spodoptera frugiperda 9(Sf9)] with viral DNA (for example Pharmingen BaculoGold) to prepare recombinant baculovirus. […]

Among the data in patent US20090036485A1, “Quinoline derivatives” (priority 2004, published 2009) are IC50 values, retold here.

T1 sequence (P35968 786-1356 limits assumed): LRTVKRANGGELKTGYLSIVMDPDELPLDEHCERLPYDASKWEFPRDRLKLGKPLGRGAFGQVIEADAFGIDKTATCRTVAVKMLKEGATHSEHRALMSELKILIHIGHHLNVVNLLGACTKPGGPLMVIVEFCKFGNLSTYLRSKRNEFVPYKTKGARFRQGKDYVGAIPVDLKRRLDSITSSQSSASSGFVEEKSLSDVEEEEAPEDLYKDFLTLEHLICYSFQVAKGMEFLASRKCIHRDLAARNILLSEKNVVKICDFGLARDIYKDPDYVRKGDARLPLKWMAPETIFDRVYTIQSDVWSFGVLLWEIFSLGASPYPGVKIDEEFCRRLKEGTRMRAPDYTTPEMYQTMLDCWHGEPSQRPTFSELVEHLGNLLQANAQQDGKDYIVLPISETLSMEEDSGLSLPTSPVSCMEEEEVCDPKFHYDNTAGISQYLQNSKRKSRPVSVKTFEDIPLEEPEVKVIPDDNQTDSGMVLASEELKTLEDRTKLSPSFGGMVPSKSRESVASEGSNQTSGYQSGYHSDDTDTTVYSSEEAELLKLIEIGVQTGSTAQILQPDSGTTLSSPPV
T4 sequence (P16234 550-1089 limits assumed): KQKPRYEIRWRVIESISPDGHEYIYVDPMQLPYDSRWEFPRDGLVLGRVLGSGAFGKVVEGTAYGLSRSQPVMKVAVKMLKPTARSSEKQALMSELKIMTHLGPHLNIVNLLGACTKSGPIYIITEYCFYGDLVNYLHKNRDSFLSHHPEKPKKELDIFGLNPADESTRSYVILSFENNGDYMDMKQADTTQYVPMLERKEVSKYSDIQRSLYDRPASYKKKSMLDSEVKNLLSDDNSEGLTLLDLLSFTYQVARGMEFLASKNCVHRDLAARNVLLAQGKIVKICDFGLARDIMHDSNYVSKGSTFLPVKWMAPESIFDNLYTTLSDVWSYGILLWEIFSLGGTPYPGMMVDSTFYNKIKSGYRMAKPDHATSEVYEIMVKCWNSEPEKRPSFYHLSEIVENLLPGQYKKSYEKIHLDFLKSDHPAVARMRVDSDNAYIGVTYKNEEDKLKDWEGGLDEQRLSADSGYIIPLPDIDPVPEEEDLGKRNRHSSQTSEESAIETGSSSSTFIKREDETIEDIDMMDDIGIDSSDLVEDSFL

A word on the IC50: it is the concentration at which inhibition is half-maximal. Take `COc1cc2nccc(Oc3cnn(CC(=O)Nc4cccc(F)c4)c3)c2cc1C#N` [Example 1, N-(3-fluorophenyl)-2-[4-(6-cyano-7-methoxyquinolin-4-yloxy)pyrazol-1-yl]acetamide]: the half-inhibitory concentration (IC50) was about 6 µM in assay [1], about 2 nM in assay [2], about 100 nM in assay [3] and about 500 nM in assay [4].
